Results: ChEMBL document CHEMBL1159278, “An antimitotic and cytotoxic chalcone from Fissistigma lanuginosum” (J Nat Prod, 1995)
In brackets after ≈: the same amount, converted by molar mass.

How the values were obtained:
[1] = test system: KB; assay: Cytotoxicity against human KB cells; assay type: functional, cell-based
[2] = Inhibition of tubulin assembly into microtubules

| SMILES | IC50 [1] [µg/mL] | IC50 [2] [µM] |
| --- | --- | --- |
| COc1c(O)c(OC)c(C(=O)[C@@H]2CC=C(CCC=C(C)C)C[C@H]2c2ccccc2)c(O)c1OC [FISSISTIN] | 0.15 (≈ 0.321 µM) |  |
| CC[C@]1(O)C[C@@H]2CN(CCc3c([nH]c4ccccc34)[C@@](C(=O)OC)(c3cc4c(cc3OC)N(C)[C@H]3[C@@](O)(C(=O)OC)[C@H](OC(C)=O)[C@]5(CC)C=CCN6CC[C@]43[C@@H]65)C2)C1 [VINBLASTINE] |  | 4 |
| COc1c(O)c(OC)c(C(=O)[C@@H]2CC(CCC=C(C)C)=CC[C@H]2c2ccccc2)c(O)c1OC [ISOFISSISTIN] | 0.15 (≈ 0.321 µM) |  |
| COc1c(O)c(OC)c(C(=O)/C=C/c2ccccc2)c(O)c1OC [PEDICIN] |  | 300 |
